The conditions of this data set: for aqueous solubility: pH 6.8.

The record followed here is the Biogen ADME set (Fang et al. 2023).

In brackets after ≈: the same amount, converted by molar mass. Bounds are passed on as bounds.

For orientation: aqueous solubility means the concentration that dissolves in the medium under given conditions. A higher aqueous solubility goes with a readily soluble substance. For `COc1ccc(CN2CCN(c3cc(C)nc(N)n3)CC2)cc1OC`, the MDR1-MDCK efflux ratio came out at 5.7; the intrinsic clearance, human liver microsomes was not above 4.74 mL/min/kg; the intrinsic clearance, rat liver microsomes is not above 10.7 mL/min/kg; the aqueous solubility was 53.6 µg/mL (≈ 156 µM).
The molecule `CCc1cc2c(=O)[nH]c(-c3ccccn3)nc2s1` displayed an aqueous solubility of 49 µg/mL (≈ 190 µM).
`Clc1ccc(COc2cccc(N3CCNCC3)c2)cc1` displayed an intrinsic clearance, human liver microsomes of 5.23 mL/min/kg; an intrinsic clearance, rat liver microsomes of 320 mL/min/kg; an aqueous solubility of 23.2 µg/mL (≈ 76.6 µM).
Taken in the same sequence, the figures for `C/N=C(\NC#N)NCCSCc1nc[nH]c1C` were not above 4.74 mL/min/kg, not above 10.7 mL/min/kg and 41.6 µg/mL (≈ 165 µM).
Take `CS(=O)(=O)NC1CCCN(c2nc3ccccc3o2)C1` (centres undefined): the MDR1-MDCK efflux ratio turned out to be 4.21; the intrinsic clearance, human liver microsomes is not above 4.74 mL/min/kg; the intrinsic clearance, rat liver microsomes stood at 42.3 mL/min/kg.
As for `CC(=O)Nc1ccc(C(=O)N2CCc3ncncc3C2)cc1`, the MDR1-MDCK efflux ratio was 17.2; the intrinsic clearance, human liver microsomes was not above 4.74 mL/min/kg; the intrinsic clearance, rat liver microsomes is not above 10.7 mL/min/kg; the aqueous solubility was 33.7 µg/mL (≈ 114 µM).
On to `CC(=O)NCCNc1cc(Cl)nn2c(-c3cccc(S(=O)(=O)N(C)C)c3)c(C)nc12`, for which the MDR1-MDCK efflux ratio is 67.7; the fraction unbound, human plasma is 0.048; the intrinsic clearance, human liver microsomes stood at 228 mL/min/kg; the intrinsic clearance, rat liver microsomes was 797 mL/min/kg. The same molecule gave an aqueous solubility of 45.8 µg/mL (≈ 102 µM).
Take `NC(=O)CC1CCN(c2ncccn2)CC1`: the MDR1-MDCK efflux ratio was 1.01; the intrinsic clearance, human liver microsomes is not above 4.74 mL/min/kg; the intrinsic clearance, rat liver microsomes is not above 10.7 mL/min/kg; the aqueous solubility was found to be 58.2 µg/mL (≈ 264 µM).
Consider `O=C(OCc1cc(Cl)ccn1)c1ccc2[nH]c(C(F)F)nc2c1`, for which the MDR1-MDCK efflux ratio came out at 1.37; the intrinsic clearance, human liver microsomes stood at 515 mL/min/kg; the intrinsic clearance, rat liver microsomes turned out to be 1520 mL/min/kg; the aqueous solubility amounted to 35 µg/mL (≈ 104 µM).
Consider `COc1ccc(S(=O)(=O)N2CCC(N3CCC(C)CC3)CC2)cc1`, for which the aqueous solubility was determined as 56.4 µg/mL (≈ 160 µM).
On the same count and under the same terms, with `CC(C)(C)OC(=O)N1CC=C(CCC(=O)NO)C1` the figure was 44 µg/mL (≈ 172 µM).
Molecule `CN1CCN(C(=O)c2ccc3cc(CCNc4ncnc5ccc(C#N)cc45)ccc3c2)CC1` yielded an intrinsic clearance, human liver microsomes of 81.8 mL/min/kg and an intrinsic clearance, rat liver microsomes of 238 mL/min/kg.
As for `C1CN(c2nc3c(c(N4CCSCC4)n2)SCC3)CCS1`, the MDR1-MDCK efflux ratio stood at 0.383; the intrinsic clearance, human liver microsomes worked out at 126 mL/min/kg; the intrinsic clearance, rat liver microsomes came to 1530 mL/min/kg.
Consider `CN(C)c1ncn(-c2cccc(N)c2)n1`, for which the MDR1-MDCK efflux ratio was 0.596; the intrinsic clearance, human liver microsomes turned out to be 15.3 mL/min/kg; the intrinsic clearance, rat liver microsomes came to 25.4 mL/min/kg; the aqueous solubility came to 22.1 µg/mL (≈ 109 µM).
Take `Cc1nc(Nc2ccc(F)cc2)nc2c1ncn2-c1ccc(F)cc1`: the MDR1-MDCK efflux ratio came to 0.388 and the aqueous solubility was determined as 0.14 µg/mL (≈ 0.415 µM).
For the molecule `CN(CCO)C(=O)c1ccc(-c2cccc(C(F)(F)F)n2)cc1`, the MDR1-MDCK efflux ratio came to 1.52; the intrinsic clearance, human liver microsomes was not above 4.74 mL/min/kg; the intrinsic clearance, rat liver microsomes worked out at 54.3 mL/min/kg.
For the molecule `Cc1c(C(=O)NC2CCN(CC3CCCCC3)CC2)cnn1C`, the MDR1-MDCK efflux ratio is 6.82; the intrinsic clearance, human liver microsomes was not above 4.74 mL/min/kg; the intrinsic clearance, rat liver microsomes was not above 10.7 mL/min/kg; the aqueous solubility came to 48.9 µg/mL (≈ 154 µM).
The like results for `CCN1CCC(Nc2nc(C)cc(C)c2C#N)CC1` were, in that order, 1.24, 6.73 mL/min/kg, 2490 mL/min/kg and 43.4 µg/mL (≈ 168 µM).
For the molecule `CCONC(=O)c1cnn(-c2cccc(Cl)c2)c1`, the intrinsic clearance, human liver microsomes was 34.9 mL/min/kg; the intrinsic clearance, rat liver microsomes came out at 446 mL/min/kg; the aqueous solubility was determined as 41 µg/mL (≈ 154 µM).
Consider `CNC(=O)c1ccc(-c2nnc(-c3cccc(C)c3)o2)cc1`, for which the aqueous solubility amounted to 0.21 µg/mL (≈ 0.716 µM).
Turning to `O=C(c1ccccc1F)N1CCC[C@@H]1Cn1nnn(-c2cccs2)c1=O`, the MDR1-MDCK efflux ratio was 0.769; the intrinsic clearance, human liver microsomes stood at 62.4 mL/min/kg; the intrinsic clearance, rat liver microsomes was found to be 1240 mL/min/kg; the aqueous solubility came out at 33 µg/mL (≈ 88.4 µM).
For the molecule `O=C(CN1CCc2ccccc21)N1CCNC1=O`, the MDR1-MDCK efflux ratio is 0.72; the intrinsic clearance, human liver microsomes is not above 4.74 mL/min/kg; the intrinsic clearance, rat liver microsomes was 16.2 mL/min/kg; the aqueous solubility was determined as 27.5 µg/mL (≈ 112 µM).
Regarding `Cc1cc(CNc2cc(C(=O)N(C)C)ccn2)sc1Br`, the MDR1-MDCK efflux ratio was 0.744; the intrinsic clearance, human liver microsomes was determined as 36.2 mL/min/kg; the intrinsic clearance, rat liver microsomes was 799 mL/min/kg; the aqueous solubility is 47.3 µg/mL (≈ 134 µM).
For the molecule `CCCCN1CCN(C(=O)c2cccc(-c3ccc(CO)cc3)c2)CC1`, the MDR1-MDCK efflux ratio was 1.13; the intrinsic clearance, human liver microsomes stood at 26.6 mL/min/kg; the intrinsic clearance, rat liver microsomes is 269 mL/min/kg.
As for `O=C(Nc1cccc2c(=O)cc(-c3nnn[nH]3)oc12)c1ccc(OCCCCc2ccccc2)cc1`, the fraction unbound, human plasma turned out to be 0.0383; the fraction unbound, rat plasma was 0.0592; the intrinsic clearance, human liver microsomes came to 21.1 mL/min/kg.
As for `Cc1nnc2ncc(-c3cccc4ccnn34)cn12`, the MDR1-MDCK efflux ratio amounted to 0.468; the intrinsic clearance, human liver microsomes was determined as 9.33 mL/min/kg; the intrinsic clearance, rat liver microsomes worked out at 39.7 mL/min/kg.
`O=C1OCCN1CCN1CCC(c2cc3ccccc3[nH]2)CC1`: the intrinsic clearance, human liver microsomes worked out at 11.1 mL/min/kg and the intrinsic clearance, rat liver microsomes came to 488 mL/min/kg.
With `O=C1CCC(=O)N1CCN1CCCCc2ccccc21`, the MDR1-MDCK efflux ratio came to 0.651; the intrinsic clearance, human liver microsomes was 122 mL/min/kg; the intrinsic clearance, rat liver microsomes was found to be 1470 mL/min/kg; the aqueous solubility is 55.8 µg/mL (≈ 205 µM).
On to `COCc1noc(-c2ccc(-c3cc(C)cc(C)c3)nc2)n1`, for which the MDR1-MDCK efflux ratio was 0.295 and the aqueous solubility was found to be 0.21 µg/mL (≈ 0.711 µM).
Take `O=c1cc(CN2CCCCc3ccccc32)[nH]c2ccnn12`: the MDR1-MDCK efflux ratio was found to be 6.78; the intrinsic clearance, human liver microsomes was 34.2 mL/min/kg; the intrinsic clearance, rat liver microsomes stood at 481 mL/min/kg; the aqueous solubility came to 14.3 µg/mL (≈ 48.5 µM).
The like results for `COc1cc(OC)c(OC)cc1CNc1ccc(N2CCOCC2)c(C(=O)O)c1` were, in that order, 28, not above 4.74 mL/min/kg, not above 10.7 mL/min/kg and 29.2 µg/mL (≈ 72.6 µM).
Taken in the same sequence, the figures for `O=c1c2c(nc3ccccn13)CCN(S(=O)(=O)C1CCCCC1)C2` were 1.18, 19.9 mL/min/kg, 1100 mL/min/kg and 33.2 µg/mL (≈ 95.7 µM).
The like results for `O[C@@H]1CCCC[C@H]1N1CCC(c2ccccc2)CC1` were, in that order, 0.462, not above 4.74 mL/min/kg, 1390 mL/min/kg and 46.5 µg/mL (≈ 179 µM).
Turning to `Cc1ccc(Oc2ccc(N)cc2)nn1`, the MDR1-MDCK efflux ratio came to 0.725; the intrinsic clearance, human liver microsomes was not above 4.74 mL/min/kg; the intrinsic clearance, rat liver microsomes was not above 10.7 mL/min/kg.
As to `CC(C)(CO)NCCCCn1c2ccccc2c2ccccc21`, the MDR1-MDCK efflux ratio was 7.39; the intrinsic clearance, human liver microsomes turned out to be 54.2 mL/min/kg; the intrinsic clearance, rat liver microsomes came out at 163 mL/min/kg; the aqueous solubility was 31.8 µg/mL (≈ 102 µM).
As for `CC(=O)N1c2ccccc2C[C@H]1C(=O)O`, the intrinsic clearance, human liver microsomes was not above 4.74 mL/min/kg; the intrinsic clearance, rat liver microsomes was not above 10.7 mL/min/kg; the aqueous solubility is 33.6 µg/mL (≈ 164 µM).
On to `Cc1nn(C)c2nc(N3CCN(C)C[C@@H]3c3ccccc3)sc12`, for which the MDR1-MDCK efflux ratio came out at 0.847; the intrinsic clearance, human liver microsomes was 18.5 mL/min/kg; the intrinsic clearance, rat liver microsomes worked out at 506 mL/min/kg; the aqueous solubility stood at 45 µg/mL (≈ 137 µM).
For the molecule `Cc1ncc(CCN2C(=O)NC3(CCCC3)C2=O)s1`, the MDR1-MDCK efflux ratio came out at 91; the intrinsic clearance, human liver microsomes was not above 4.74 mL/min/kg; the intrinsic clearance, rat liver microsomes is 63.6 mL/min/kg.
Taken in the same sequence, the figures for `O=C(CSc1ccccn1)N1CCSc2ccccc21` were 0.586, 426 mL/min/kg and 6400 mL/min/kg.
On to `Cc1cn(CCN2CCN(c3ccccc3-c3cc(C#N)cc(C(=O)NCCCN4CCCC4)c3)CC2)c2ccccc12`, for which the MDR1-MDCK efflux ratio was 0.338; the intrinsic clearance, human liver microsomes turned out to be 120 mL/min/kg; the intrinsic clearance, rat liver microsomes came to 190 mL/min/kg; the aqueous solubility worked out at 31.7 µg/mL (≈ 55.2 µM).
As for `O=C(O)Cc1nc2ccccc2[nH]1`, the aqueous solubility stood at 10.1 µg/mL (≈ 57 µM).
For the molecule `Cc1cc(C)c(S(=O)(=O)Nc2ccc3c(c2)OCO3)c(C)c1-n1cnnn1`, the MDR1-MDCK efflux ratio was 24.1 and the aqueous solubility was determined as 17.8 µg/mL (≈ 46 µM).
As for `CC(C)(C)C(=O)N1CCC(NS(C)(=O)=O)CC1`, the MDR1-MDCK efflux ratio stood at 1.89; the intrinsic clearance, human liver microsomes is not above 4.74 mL/min/kg; the intrinsic clearance, rat liver microsomes is not above 10.7 mL/min/kg; the aqueous solubility is 56.9 µg/mL (≈ 217 µM).
The like results for `O=C(CN1CCCC(c2cncc(-c3cccc(Cl)c3)n2)C1)N1CCCC1` (centres undefined) were, in that order, 1.73, 86.6 mL/min/kg, 1080 mL/min/kg and 65.8 µg/mL (≈ 171 µM).
In the case of `O=C(Nc1cn(CCOCC(F)(F)F)nc1-c1ccccn1)c1coc(-c2cn[nH]c2)n1`, the MDR1-MDCK efflux ratio worked out at 6.03; the intrinsic clearance, human liver microsomes was 51.7 mL/min/kg; the intrinsic clearance, rat liver microsomes is 518 mL/min/kg.
Taken in the same sequence, the figures for `N#Cc1ccc2ncnc(N[C@H]3CC[C@H](N4CCOCC4)CC3)c2c1` were 24.6, 9.63 mL/min/kg and 49.2 mL/min/kg.
As to `CCN(CC)Cc1ccc2cc(COC(=O)Nc3ccc(C(=O)NO)cc3)ccc2c1`, the MDR1-MDCK efflux ratio turned out to be 22.6; the intrinsic clearance, human liver microsomes amounted to 7.96 mL/min/kg; the intrinsic clearance, rat liver microsomes was 227 mL/min/kg; the aqueous solubility turned out to be 78 µg/mL (≈ 185 µM).
In turn, `CN(C)S(=O)(=O)Nc1ccc2sncc2c1` yielded an aqueous solubility of 53.6 µg/mL (≈ 208 µM).
Take `O=C(NCCCn1ccnc1)N1CCC12CCC2`: the MDR1-MDCK efflux ratio was 30.5; the intrinsic clearance, human liver microsomes was not above 4.74 mL/min/kg; the intrinsic clearance, rat liver microsomes is 27.8 mL/min/kg; the aqueous solubility was determined as 41.1 µg/mL (≈ 166 µM).
